Laboratory results taken from US6620583B2, “Diagnostic screens for type 1 diabetes (IDDM)” (Boston Medical Center Corporation, priority 1998, dated 2003).

Columns and labels:
Format in all cases: cell-based, human
[1] = test system: dermal fibroblasts from type I diabetic patients and matched controls; assay: Bradykinin-induced Ca2+ mobilization in fura-2 AM loaded fibroblasts (fluorescence spectrophotometry)
Experimental: The following examples describe novel findings upon which the present invention is based, at least in part. In particular, the present inventors have determined the effects of tumor necrosis factor alpha (TNF-α) treatment, and the diabetic environment (elevated glucose and fatty acid), on bradykinin-induced Ca^2+ mobilization in dermal fibroblasts from type I diabetic patients and matched controls. Fibroblasts were exposed to TNF-α (10 ng/ml) for up to 48 hours. Cells in suspension were then loaded with fura-2 acetoxymethyl ester, and bradykinin-induced Ca^2+ mobilization was measured using fluorescence spectrophotometry. […] With 24 hours of treatment, TNF-α-induced increments in peak bradykinin response were three-fold greater in diabetics than in controls (P<0.001).
Briefly, fibroblasts from 7 control and 10 diabetic donors (passages 7 to 30) were loaded with fura-2 AM and Ca^2+ mobilization in response to increasing concentrations of bradykinin was determined.
Briefly, paired flasks of cells were treated with TNF-α or left untreated. Fura-loaded cells were stimulated with 20 nM bradykinin and Ca^2+ mobilization was measured after 200 seconds. […] Fibroblasts were fura-2 AM loaded and Ca^2+ mobilization in response to increasing concentrations of bradykinin was determined. Each bar represents the mean of 14 to 33 separate determinations. In cells from both control and diabetic donors, TNF-α treatment augmented bradykinin induced Ca^2+ mobilization, although to a much greater extent in the diabetic donor. […] A small increase in the final equilibrium level of Ca^2+ was also seen consistently in the diabetic fibroblasts, but not in the controls.
The difference between control and diabetic cells can be seen more clearly through the bradykinin-induced increment between untreated and TNF-α treated. […] The change in peak response to bradykinin after TNF-α treatment was measures in fibroblasts from 7 control and 10 diabetic donors (3-8 separate experiments per donor). Each bar on the graph represents the mean of 14 to 34 separate determinations. […] ANOVA indicated an overall difference between control and diabetic (p<0.001), and specific differences between control and diabetic (Tukey p<0.001) at every bradykinin concentration above 1 nM.
Following the initial bradykinin induced peak of Ca^2+ mobilized from the ER, a sustained elevation of Ca^2+ occurs lasting for minutes. This sustained elevation in steady state Ca^2+ requires Ca^2+ entry from the extracellular space. Inappropriate elevation of Ca^2+ may lead to cell injury, apoptosis and death by activation of phospholipases, nucleases, and proteases (Cheung et al. (1986) N. Engl. J. Med. 314:1670-1676): thus, inappropriately elevated Ca^2+ in diabetic cells could be an important mechanisms for initiating diabetic pathology. Because of the important signal transducing properties of the sustained phase of the Ca^2+ response, the effects of TNF-α treatment on the steady state were examined. Briefly, fibroblasts from 7 control and 10 diabetic donors were exposed to 10 ng/ml TNF-α for 24 hours prior to bradykinin stimulation. The magnitude of the final steady state, or resting, intracellular [Ca^2+] following stimulation with bradykinin was determined. Each bar represents the mean of 14 to 34 separate determinations.
To determine whether the TNF-α induced increase in the peak bradykinin response was due to mobilization of Ca^2+ from intracellular stores, the Ca^2+ chelator EGTA was added prior to stimulation with bradykinin. FIG. 9 illustrates an experiment in which fibroblasts were treated with TNF-α for 24 hours or left untreated and the peak bradykinin response measured in the presence or absence of 2 mM EGTA. In these traces, 2 mM EGTA was added 10 seconds prior to stimulation with 200 nM bradykinin. The peak response was unaltered by EGTA in untreated and TNF-α treated cells. […]

[2] = test system: fibroblasts from control and IDDM donors; assay: Thapsigargin-mediated emptying of intracellular Ca2+ stores in fura-loaded fibroblasts
Experimental: Thapsigargin, an irreversible inhibitor of the intracellular Ca^2+-ATPase, was used to determine if the TNF-α induced increment in peak bradykinin response was mediated by changes in the bradykinin signal transduction cascade, or was at the level of the intracellular Ca^2+ stores by irreversibly inhibiting their refilling FIG. 10 illustrates representative traces in which thapsigargin was added to untreated and TNF-α treated cells from control and IDDM donors. […] Potential mechanisms include alterations in modulation of Ca^2+-ATPase activity, changes in the ATPase itself or alterations in intraluminal signaling.

calreticulin = assay: Western blot of calreticulin expression in fibroblasts; conditions: 24 hr of TNF-α treatment
Excerpt: Although TNF-α is known to turn on a multitude of genes in many different cell types, including the fibroblast (Tessier et al. (1993) Arthritis & Rheumatism 36:1528-1539; Rathanaswami et al. (1993) Arthritis & Rheumatism 36:1295-1304; Butler et al. (1994) Eur. Cytokine Network 5:441-448), it is possible that new protein synthesis is required to replete a component of the signal transduction apparatus that is constantly being turned over.

O=C(O)CN(CCOCCOCCN(CC(=O)O)CC(=O)O)CC(=O)O [EGTA, reference compound]
effect on final [Ca2+]i after bradykinin ([1]; 2 mM EGTA added 10 seconds prior to 200 nM bradykinin): eliminate the increase in final [Ca^2+]I
effect on peak bradykinin response ([1]; 2 mM EGTA added 10 seconds prior to 200 nM bradykinin, untreated and TNF-α treated cells): unaltered

TNF-α
treatment time at which maximum TNF-α induced increment in peak bradykinin response is achieved ([1]; 10 ng/ml TNF-α, 3 donors, not diminished by 48 hr): ≤ 24 h
TNF-α induced increment in bradykinin-induced Ca2+ mobilization, diabetic cells versus control cells ([1]; TNF-α 10 ng/ml for 24 hours, 7 control and 10 diabetic donors): 3 fold
effect on steady state Ca2+ following the bradykinin response ([1]; TNF-α 10 ng/ml for 24 hours, control and diabetic donors, ANOVA p<0.001): significant elevations of steady state Ca^2+
effect on bradykinin-induced Ca2+ mobilization ([1]; TNF-α 10 ng/ml, 24 hour incubation, 20 nM bradykinin, control and diabetic donors): potentiated bradykinin-induced Ca^2+ mobilization
treatment time from which increases in bradykinin-induced Ca2+ mobilization were observed ([1]; TNF-α 10 ng/ml, bradykinin 1 nM to 1 μM, controls and diabetics): ≥ 1 h
effect on basal intracellular Ca2+ ([1]; TNF-α 10 ng/ml, p<0.05): significant increase in basal Ca^2+ in diabetic but not control cells
effect on peak bradykinin response in control donors, diabetic milieu experiment ([1]; control donors, 48 hours FFA medium, TNF-α final 24 hours, data not shown): little or no effect
effect of TNF-α on thapsigargin-induced Ca2+ transients ([2]; TNF-α treated versus untreated fibroblasts): greater in TNF-α treated fibroblasts than in untreated cells
effect on calreticulin expression (calreticulin): no change in calreticulin expression

C/C=C(/C)C(=O)O[C@H]1C(C)=C2[C@H]([C@@H]1OC(=O)CCCCCCC)[C@@](C)(OC(C)=O)C[C@H](OC(=O)CCC)[C@@]1(O)[C@H]2OC(=O)[C@@]1(C)O [thapsigargin, reference compound]
effect of thapsigargin on cytosolic Ca2+ ([2]; untreated and TNF-α treated cells): transient rise of cytosolic Ca^2+

CCCCCCCC/C=C\CCCCCCCC(=O)O [oleate, oleic acid]
effect on peak bradykinin response (% of 5.6 mM glucose) ([1]; 2 mM oleate with 11 mM glucose, 3 control and 4 diabetic donors, ANOVA p<0.001): significant effects
effect on steady state [Ca2+]i following bradykinin stimulation ([1]; 2 mM oleic acid with 11 mM glucose, 3 control and 4 diabetic donors, p<0.001): significant effect

C[C@@H]1C[C@@H]([C@H](O)CC2CC(=O)NC(=O)C2)C(=O)[C@@H](C)C1 [cycloheximide, reference compound]
effect on TNF-α induced increment in bradykinin response ([1]; protein synthesis inhibitor given with TNF-α): blocked the TNF-α induced increment
